Measured values taken from patent US20050136126A1, “Agent for reduction of scar formation by using wound alkalinization” (CambridgeMED, Inc., priority 2003, published 2005).
Where two headings read alike, the source gives them in different places.

What was measured:
[1] = Excerpt: Regarding concentrations and amounts of the various reagents, please refer to Tables 1 and 2 below: […]
[2] = tested on: incised wound on the dorsum of adult white rats; conditions: for deposited collagen (amount, appearance) / collagen fibers (density, structure) vs normal dermis: Trichrome dyeing
Procedure: On the dorsum of adult white rats, skin near the limbs which are on the same distance from the median line was incised in about 10 mm long. In a sham control group, 0.1 cc distilled water was injected to the dermis of the incised wound and simply sutured.
On 14th and 56th days from the experiments, tissues of ten adult white rats were taken, fixed in 10% neutral buffer formalin for 24 hours, embedded in paraffin throughout the normal tissue treating process.
With a tissue sample, which was cut perpendicularly to the middle of the wound, the width of the scar by use of image analysis program (Image-Pro version 3.0, Microsoft) under 40 magnification was measured, and the differences between the groups were compared. The result of the measurement was confirmed by Student t-test.
On the dorsum of adult white rats, skin near the limbs which are on the same distance from the median line was incised in about 10 mm long. After incision, the control group was simply sutured.

TGF-β = assay: Experiment of TGF-β inactivation: histology and width of scar after TGF-β injection into incised wound; type: in vivo, bovine; conditions: 8 weeks; Trichrome dyeing
[3] = 2 weeks, hematoxylin-eosin dyeing, ×40

| Compound | pH value ([1]; 0.05 mEq) | pH value ([1]; 0.1 mEq) | pH value ([1]; 0.5 mEq) | pH value ([1]; 1.0 mEq) | deposited collagen (amount, appearance) ([2]; 2 weeks) | width of the scar vs control group (histological observation) [2, 3] | collagen fibers (density, structure) vs normal dermis ([2]; 8 weeks) | degree of deposition of inflammatory cells vs control group [2, 3] | scar appearance ([2]; 8 weeks, hematoxylin-eosin dyeing, ×40) | fibroblast cells ([2]; 8 weeks, hematoxylin-eosin dyeing, ×400) | collagen fibers (density, structure) vs normal dermis (TGF-β) |
| --- | --- | --- | --- | --- | --- | --- | --- | --- | --- | --- | --- |
| [K+].[OH-] [KOH, potassium hydroxide] | 8.56 | 9.40 | 9.74 | 10.51 | meager compared to that of the control group | thinner than that of the control group | not different from that of the normal dermis nearby | – | – | – | – |
| [Na+].[OH-] [NaOH, sodium hydroxide] | 8.55 | 9.38 | 9.87 | 10.50 | meager compared to that of the control group | thinner than that of the control group | not different from that of the normal dermis nearby | – | – | – | – |
| O=C([O-])O.[Na+] [sodium bicarbonate] | 8.83 | 9.22 | 9.82 | 10.36 | – | thinner than that of the control group | – | not much difference | thin and unnoticeable scar | Not many of the fibroblast cells were found | – |
| TGF-β | – | – | – | – | – | – | – | – | – | – | clearly showed the scar |
